Assay results from US6444821B1, “Crystals of piperidine derivatives, intermediates for production of the same, and process for producing the same” (Ajinomoto Co., Inc., priority 1995, dated 2002).
Counter-ions that a name gives are not always drawn.

Tests used:
[1] = Dissolution rate in gastric juice model solution (JP-1 solution); format: physicochemical; details: 20 mg crystals in 500 ml JP-1 solution, 37° C., FIG. 9
Description: Each 20 mg of the monohydrate and trihydrate crystals of Compound (I) produced in Examples 4 and 6 was added to 500 ml of a gastric juice model solution (JP-1 solution according to Japan Pharmacopeia) of 37° C., and the concentration of Compound (I) in the solution was measured over the course of time.

[2] = Oral bioavailability in Beagle dog (plasma AUC oral vs intravenous); format: in vivo; details: 3.0 mg/kg, plasma sampled 30 minutes to 24 hours
Description: Each of the monohydrate and trihydrate crystals of Compound (I) produced in Examples 4 and 6 was orally administered to a Beagle dog at a dose of 3.0 mg/kg. After 30 minutes, 1 hour, 2 hours, 3 hours, 4 hours, 6 hours, 8 hours and 24 hours of the administration, the blood was collected, the concentration of Compound (I) in the plasma was measured, and the area under plasma concentration curve (AUC) was obtained.

[3] = Storage stability of crystals; format: physicochemical; details: storage for 1 month
Source text: Still further, the monohydrate and trihydrate crystals of the present invention can be easily produced from α-type anhydride crystals and β-type anhydride crystals.

Compound	dissolution rate [1]	bioavailability (ratio of the AUC value of oral administration to that of intravenous administration) ([2]; hydrochloride trihydrate) [%]	stability (chemical and physical) on storage [3]	bioavailability (ratio of the AUC value of oral administration to that of intravenous administration) ([2]; hydrochloride monohydrate) [%]
O=CN1CCC(C(=O)NCCN2CCC(=C3c4ccccc4C=Cc4ccccc43)CC2)CC1 [trihydrate crystals, N-(2-(4-(5H-dibenzo[a,d]cyclohepten-5-ylidene)-piperidino)ethyl)-1-formyl-4-piperidinecarboxamide hydrochloride trihydrate]	high dissolution rate compared to the monohydrate crystals	49.6	–	–
O=CN1CCC(C(=O)NCCN2CCC(=C3c4ccccc4C=Cc4ccccc43)CC2)CC1 [monohydrate crystals, N-(2-(4-(5H-dibenzo(a,d)cyclohepten-5-ylidene)-piperidino)ethyl)-1-formyl-4-piperidinecarboxamide hydrochloride monohydrate]	–	–	unchanged even after storage for 1 month	73.4
